# Measured values: patent US20250223300A1, “MACROCYCLIC COMPOUND AND PHARMACEUTICAL COMPOSITION AND USE THEREOF” (BETTA PHARMACEUTICALS CO., LTD, priority 2022, published 2025)
# Columns and labels:
# [1] = molecular target: Ba/F3 cells overexpressing EGFR Del19/T790M/C797S (Homo sapiens, UniProt P00533, T790M/C797S, cells depend on it, form not given); test: Cell proliferation inhibitory activity assay, Ba/F3 EGFR Del19/T790M/C797S; type: cell-based; settings: cell proliferation inhibition, 72 hours, luminescence; read-out: Ba/F3 cells overexpressing different EGFR mutations IC50 (nM) Del19/T790M/C797S
# Procedure: (§1) Suspension cells Ba/F3 (EGFR. Dell9/T790M/C797S), Ba/F3 (EGFR L858R/T790M/C797S), Ba/F3 (EGFR Del19/C797S), and Ba/F3 (EGFR L858R/C797S) overexpressing different EGFR mutations were cultured in PRMI 1640 containing 10% FBS and 1% PS, and adherent cells A431 carrying EGFR WT were cultured in DMEM containing 10% FBS and 1% PS. The experimental steps for compound activity detection are as follows: • (1) Take adherent cells in the logarithmic growth phase, digest them with trypsin count them, and then inoculate them into a 96-well plate at a certain density. Incubate them overnight at 37° C. and 5% CO2 to allow them to adhere.
# (§2) Y=minimum+([…])/(1+10^((Log IC50−X)*slope)); • X: logarithm of compound concentration; Y: cell survival inhibition rate.
# [2] = molecular target: Ba/F3 (EGFR L858R/T790M/C797S) (Homo sapiens, UniProt P00533, T790M/C797S/L858R, cells depend on it); test: Cell proliferation inhibitory activity assay, Ba/F3 EGFR L858R/T790M/C797S; type: cell-based; settings: cell proliferation inhibition, 72 hours, luminescence; read-out: Ba/F3 cells overexpressing different EGFR mutations IC50 (nM) L858R/T790M/C797S
# Procedure: as §1, §2
# Ba/F3 (EGFR Del19/C797S) = Ba/F3 (EGFR Del19/C797S) (Homo sapiens, UniProt P00533, C797S, cells depend on it, form not given); test: Cell proliferation inhibitory activity assay, Ba/F3 EGFR Del19/C797S; type: cell-based; settings: cell proliferation inhibition, 72 hours, luminescence; read-out: Ba/F3 cells overexpressing different EGFR mutations IC50 (nM) Del19/C797S
# Procedure: as §1, §2
# Ba/F3 (EGFR L858R/C797S) = Ba/F3 (EGFR L858R/C797S) (Homo sapiens, UniProt P00533, C797S/L858R, cells depend on it); test: Cell proliferation inhibitory activity assay, Ba/F3 EGFR L858R/C797S; type: cell-based; settings: cell proliferation inhibition, 72 hours, luminescence; read-out: Ba/F3 cells overexpressing different EGFR mutations IC50 (nM) L858R/C797S
# Procedure: as §1, §2
# [3] = test system: A431 cell carrying EGFR WT; test: Cell proliferation inhibitory activity assay, A431; type: cell-based; settings: Homo sapiens, A-431; cell proliferation inhibition, 72 hours, luminescence
# Procedure: as §1, §2
# Pharmacokinetics in mice = type: in vivo, mouse; settings: mouse, po, female BALB/c mice, 5 mg/kg orally by gavage, plasma; for Cmax: read-out: Cmax
# Procedure: Mouse PK studies were performed using female BALB/c mice (20-30 g). Compounds were prepared and prepared immediately before use. Mice were administered intravenously or orally by gavage. Blood was collected from the mouse orbital venous plexus, and 100 μL of whole blood was transferred to a K2-EDTA tube at each time point.
# 1 mg/kg was given intravenously, and whole blood was collected at 0.083, 0.25, 0.5, 1, 2, 4, 6 and 24 h after administration; 5 mg/kg were given orally by gavage, and whole blood was collected at 0.25, 0.5, 1, 2, 4, 6, 24 h after administration in different batches, or the mice were killed at 2, 4 and 6 h to obtain brains. Whole blood samples were centrifuged and plasma was separated; brain tissue samples were homogenized by adding 4 times the volume of buffer, and the plasma and brain tissue samples were stored in a −80° C. refrigerator for later use. After the above plasma and brain tissue samples were precipitated with acetonitrile for protein, the supernatant was taken and mixed with water in a 1:1 ratio, and 10 μL was taken for LC-MS/MS detection.
# Pharmacokinetics in rats = type: in vivo, rat; settings: rat, po, male SD rats, 5 mg/kg orally by gavage, plasma; for Cmax: read-out: Cmax
# Procedure: Male SD rats (200-300 g) were used for rat PK studies. Compounds were prepared and prepared immediately before use. Rats were administered intravenously or orally by gavage. Blood was collected from the rats through the orbital venous plexus, and 100 μL whole blood was collected into K2-EDTA tubes at each time point.
# 1 mg/kg was given intravenously, and whole blood was collected at 0.083, 0,25, $0.5, 1, 2, 4, 7, 24, 48, and 72 h after administration; 5 mg/kg were given orally by gavage, and whole blood was collected at 0.25, 0.5, 1, 2, 4, 7, 24, 48, and 72 h after administration in different batches, or the rats were killed at 4 and 24 h to obtain brains. The brain tissue samples were homogenized by adding 4 times the volume of buffer, and the whole blood and brain tissue samples were stored in a −80° C. refrigerator for later use. After the above whole blood and brain tissue samples were precipitated with acetonitrile for protein, the supernatant was taken and mixed with water in a ratio of 1:2, and 10 μL was taken for LC-MS/MS detection.
# [4] = Metabolic stability of liver microsomes, human; type: in vitro ADME; settings: NADPH, 0-45 min, read-out: CLint(μL/min/mg protein) Human
# Procedure: (§3) The liver microsomes of human, rat, mouse and dog were used to study the metabolic stability of the compounds. The specific experimental steps are as follows: • (1) Add 40 μL MgCl2 and 306 μL PBS to each well of a 96-well plate, and then add 4 μL compound, with a final DMSO concentration of ≤0.5%. Set up a blank well without compound; • (2) Add 10 μL of 20 mg/mL liver microsomes to each well, incubate at 37° C. for 10 min; • (3) Add 40 μL NADPH working solution to each well to start the reaction, and set up a control well without NADPH; • (4) At 0, 5, 15, and 45 min after the start of the reaction, 50 μL of sample was taken out, the termination solution was added, and the mixture was shaken for 5 min. • (5) The samples were then centrifuged at 3,220 g for 10 min, and 50 μL of the supernatant was removed and was added 200 μL water for dilution and analysis by LC-MS/MS.
# (§4) The in vitro intrinsic clearance (in vitro CLint, in μL/min/mg) was calculated from the in vitro half-life t1/2 (minutes) using the following equation (mean of replicates):
# (§5) In vitro clearance rate=0.693/in vitro half-life t1/2×[incubation volume (μL)/(protein amount (mg)]
# [5] = Metabolic stability of liver microsomes, rat; type: in vitro ADME; settings: NADPH, 0-45 min, read-out: CLint(μL/min/mg protein) Rat
# Procedure: as §3, §4, §5
# [6] = Metabolic stability of liver microsomes, dog; type: in vitro ADME; settings: NADPH, 0-45 min, read-out: CLint(μL/min/mg protein) Dog
# Procedure: as §3, §4, §5
# [7] = Metabolic stability of liver microsomes, mouse; type: in vitro ADME; settings: NADPH, 0-45 min, read-out: CLint(μL/min/mg protein) Mouse
# Procedure: as §3, §4, §5
# Ba/F3 cells overexpressing EGFR Del19/T790M/C797S, sequence (P00533 with tags, fused parts or gaps DEL746-750/T790M/C797S, form open): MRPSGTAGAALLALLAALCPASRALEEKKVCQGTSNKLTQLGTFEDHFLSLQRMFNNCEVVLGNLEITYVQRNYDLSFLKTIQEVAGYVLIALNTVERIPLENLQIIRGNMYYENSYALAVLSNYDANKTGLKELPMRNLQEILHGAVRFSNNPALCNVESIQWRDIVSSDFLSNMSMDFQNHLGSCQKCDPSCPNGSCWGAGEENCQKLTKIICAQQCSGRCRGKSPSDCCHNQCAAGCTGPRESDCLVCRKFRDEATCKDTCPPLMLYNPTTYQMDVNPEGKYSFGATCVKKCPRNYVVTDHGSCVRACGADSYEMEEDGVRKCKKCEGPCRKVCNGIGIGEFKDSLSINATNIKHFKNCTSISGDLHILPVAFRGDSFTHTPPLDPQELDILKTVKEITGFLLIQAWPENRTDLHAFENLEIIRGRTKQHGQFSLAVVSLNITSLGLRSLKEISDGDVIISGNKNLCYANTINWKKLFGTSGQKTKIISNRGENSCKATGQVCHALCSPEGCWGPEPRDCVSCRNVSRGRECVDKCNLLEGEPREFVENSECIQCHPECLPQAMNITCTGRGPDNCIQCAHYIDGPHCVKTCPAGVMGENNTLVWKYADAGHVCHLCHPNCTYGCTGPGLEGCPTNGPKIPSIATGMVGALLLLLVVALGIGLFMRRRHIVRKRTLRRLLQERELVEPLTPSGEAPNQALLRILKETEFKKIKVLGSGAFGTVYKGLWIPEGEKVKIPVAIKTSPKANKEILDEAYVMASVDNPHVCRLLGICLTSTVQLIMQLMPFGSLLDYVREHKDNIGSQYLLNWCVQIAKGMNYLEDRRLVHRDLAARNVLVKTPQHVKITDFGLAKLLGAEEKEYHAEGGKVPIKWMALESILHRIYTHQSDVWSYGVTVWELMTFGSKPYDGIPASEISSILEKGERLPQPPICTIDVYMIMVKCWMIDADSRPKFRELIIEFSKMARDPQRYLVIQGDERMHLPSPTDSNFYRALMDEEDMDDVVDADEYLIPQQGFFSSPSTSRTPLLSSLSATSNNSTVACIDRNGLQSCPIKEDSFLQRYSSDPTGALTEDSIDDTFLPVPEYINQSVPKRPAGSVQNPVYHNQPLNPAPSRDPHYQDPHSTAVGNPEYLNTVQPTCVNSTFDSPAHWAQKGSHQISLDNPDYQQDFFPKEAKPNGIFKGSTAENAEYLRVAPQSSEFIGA
# Ba/F3 (EGFR L858R/C797S), sequence (P00533 whole entry C797S/L858R): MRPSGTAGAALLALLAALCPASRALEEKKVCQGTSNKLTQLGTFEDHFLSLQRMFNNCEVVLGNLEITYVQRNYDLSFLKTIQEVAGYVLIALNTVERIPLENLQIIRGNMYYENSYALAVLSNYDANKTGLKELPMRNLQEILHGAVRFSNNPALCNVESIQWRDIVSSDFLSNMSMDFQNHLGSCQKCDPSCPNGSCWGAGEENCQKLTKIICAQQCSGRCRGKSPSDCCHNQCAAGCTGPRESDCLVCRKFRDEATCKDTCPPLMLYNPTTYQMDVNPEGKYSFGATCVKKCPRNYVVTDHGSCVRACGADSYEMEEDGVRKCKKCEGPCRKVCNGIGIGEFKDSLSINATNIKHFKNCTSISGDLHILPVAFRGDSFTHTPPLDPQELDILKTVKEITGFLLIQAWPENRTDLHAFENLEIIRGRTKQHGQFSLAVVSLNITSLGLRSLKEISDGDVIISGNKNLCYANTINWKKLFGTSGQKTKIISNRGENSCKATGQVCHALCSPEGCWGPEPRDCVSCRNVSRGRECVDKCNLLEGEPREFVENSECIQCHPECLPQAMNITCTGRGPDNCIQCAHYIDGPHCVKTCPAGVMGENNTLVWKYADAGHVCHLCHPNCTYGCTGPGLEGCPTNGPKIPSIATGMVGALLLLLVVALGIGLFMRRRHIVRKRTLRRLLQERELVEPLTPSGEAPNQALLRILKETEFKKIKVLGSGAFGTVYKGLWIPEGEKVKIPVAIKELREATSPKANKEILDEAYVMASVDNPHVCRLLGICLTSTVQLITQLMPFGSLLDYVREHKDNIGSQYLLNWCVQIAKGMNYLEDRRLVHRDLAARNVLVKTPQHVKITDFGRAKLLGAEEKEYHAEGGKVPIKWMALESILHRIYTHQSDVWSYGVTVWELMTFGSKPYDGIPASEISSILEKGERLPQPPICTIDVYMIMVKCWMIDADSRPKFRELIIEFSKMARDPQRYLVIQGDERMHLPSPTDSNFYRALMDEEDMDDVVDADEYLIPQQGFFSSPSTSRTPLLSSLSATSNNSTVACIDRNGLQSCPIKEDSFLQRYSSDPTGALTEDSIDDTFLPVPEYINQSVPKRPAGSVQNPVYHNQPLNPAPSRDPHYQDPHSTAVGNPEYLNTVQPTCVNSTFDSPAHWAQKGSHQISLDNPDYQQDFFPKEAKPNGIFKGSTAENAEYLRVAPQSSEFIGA
# Ba/F3 (EGFR Del19/C797S), sequence (P00533 with tags, fused parts or gaps DEL746-750/C797S, form open): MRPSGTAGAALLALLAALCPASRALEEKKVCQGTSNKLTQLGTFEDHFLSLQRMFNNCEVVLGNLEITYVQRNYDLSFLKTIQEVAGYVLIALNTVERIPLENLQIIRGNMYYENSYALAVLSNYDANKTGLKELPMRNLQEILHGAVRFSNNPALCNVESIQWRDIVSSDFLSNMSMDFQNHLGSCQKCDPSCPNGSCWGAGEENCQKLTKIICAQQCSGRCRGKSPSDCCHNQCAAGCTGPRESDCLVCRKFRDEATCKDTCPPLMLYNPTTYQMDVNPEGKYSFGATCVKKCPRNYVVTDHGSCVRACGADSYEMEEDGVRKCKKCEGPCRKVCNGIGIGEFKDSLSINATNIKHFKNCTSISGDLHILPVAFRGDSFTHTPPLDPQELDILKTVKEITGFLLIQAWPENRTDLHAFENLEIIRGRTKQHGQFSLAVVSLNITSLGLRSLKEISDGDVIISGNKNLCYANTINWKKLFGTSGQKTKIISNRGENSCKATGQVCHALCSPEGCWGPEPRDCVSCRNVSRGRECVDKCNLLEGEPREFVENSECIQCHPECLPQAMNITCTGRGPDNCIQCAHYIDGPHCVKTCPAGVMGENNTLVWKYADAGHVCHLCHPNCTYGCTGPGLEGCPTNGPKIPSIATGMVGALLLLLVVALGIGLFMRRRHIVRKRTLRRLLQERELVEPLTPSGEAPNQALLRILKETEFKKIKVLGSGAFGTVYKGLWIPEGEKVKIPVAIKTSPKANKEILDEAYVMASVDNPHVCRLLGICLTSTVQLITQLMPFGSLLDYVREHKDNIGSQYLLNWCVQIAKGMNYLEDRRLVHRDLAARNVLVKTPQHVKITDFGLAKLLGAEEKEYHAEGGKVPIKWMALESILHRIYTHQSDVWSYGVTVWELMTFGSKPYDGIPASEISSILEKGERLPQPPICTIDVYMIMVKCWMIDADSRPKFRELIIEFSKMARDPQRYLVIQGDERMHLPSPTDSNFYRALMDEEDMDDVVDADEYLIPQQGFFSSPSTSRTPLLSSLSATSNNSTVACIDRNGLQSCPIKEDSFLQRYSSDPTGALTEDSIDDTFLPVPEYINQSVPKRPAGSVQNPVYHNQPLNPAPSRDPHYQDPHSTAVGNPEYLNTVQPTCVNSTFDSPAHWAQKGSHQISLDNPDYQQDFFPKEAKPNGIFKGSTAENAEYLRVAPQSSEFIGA
# Ba/F3 (EGFR L858R/T790M/C797S), sequence (P00533 whole entry T790M/C797S/L858R): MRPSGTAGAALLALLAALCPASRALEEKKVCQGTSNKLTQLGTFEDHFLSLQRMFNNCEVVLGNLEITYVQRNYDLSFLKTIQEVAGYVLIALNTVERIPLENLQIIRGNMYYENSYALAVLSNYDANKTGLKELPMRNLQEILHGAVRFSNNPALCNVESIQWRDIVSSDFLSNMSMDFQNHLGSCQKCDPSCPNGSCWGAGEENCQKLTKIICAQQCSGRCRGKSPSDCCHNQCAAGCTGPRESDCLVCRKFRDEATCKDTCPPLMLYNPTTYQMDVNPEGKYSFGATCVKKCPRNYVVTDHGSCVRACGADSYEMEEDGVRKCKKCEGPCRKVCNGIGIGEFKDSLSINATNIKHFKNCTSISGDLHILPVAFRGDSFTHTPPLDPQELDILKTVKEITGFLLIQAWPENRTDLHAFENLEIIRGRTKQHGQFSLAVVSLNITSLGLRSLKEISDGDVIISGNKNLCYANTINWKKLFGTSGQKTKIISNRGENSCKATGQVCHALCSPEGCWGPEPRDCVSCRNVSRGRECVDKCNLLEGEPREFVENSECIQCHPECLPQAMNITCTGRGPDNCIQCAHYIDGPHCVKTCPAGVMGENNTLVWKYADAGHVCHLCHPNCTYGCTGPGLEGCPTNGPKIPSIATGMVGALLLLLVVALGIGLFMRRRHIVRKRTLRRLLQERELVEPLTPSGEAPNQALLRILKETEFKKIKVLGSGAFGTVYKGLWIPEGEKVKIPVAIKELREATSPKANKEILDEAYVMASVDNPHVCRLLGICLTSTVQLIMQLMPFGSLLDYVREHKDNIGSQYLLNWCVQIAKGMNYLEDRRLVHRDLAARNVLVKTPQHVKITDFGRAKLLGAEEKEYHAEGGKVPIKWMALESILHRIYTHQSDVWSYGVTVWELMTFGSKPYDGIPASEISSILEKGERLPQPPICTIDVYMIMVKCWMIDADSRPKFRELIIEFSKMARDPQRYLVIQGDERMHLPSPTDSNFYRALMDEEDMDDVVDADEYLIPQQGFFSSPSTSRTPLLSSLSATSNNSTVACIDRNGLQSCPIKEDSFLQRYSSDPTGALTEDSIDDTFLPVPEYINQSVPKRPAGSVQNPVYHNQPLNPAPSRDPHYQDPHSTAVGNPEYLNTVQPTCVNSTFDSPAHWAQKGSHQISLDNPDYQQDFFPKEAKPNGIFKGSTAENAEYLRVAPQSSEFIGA
smiles,measurement,setting,value
"Cc1cc2cc(n1)-c1cnccc1OCCC[C@@H](C)Cn1c(nc3cc(F)c(N4CCC5(CC4)CCN(C4COC4)CC5)cc31)NC2=O [Example 6, (R)-5^5-fluoro-2^6,7-dimethyl-5^6-(9-(oxetan-3-yl)-3,9-diazaspiro[5.5]undecan-3-yl)-5^1H-11-oxa-4-aza-3(2.1)-benzo[d]imidazola-1(3,4),2(2,4)-dipyridinacycloundecaphan-3-one]",GI50,[1],2.1 nM
same,GI50,[2],4.1 nM
same,GI50,Ba/F3 (EGFR Del19/C797S),0.38 nM
same,GI50,Ba/F3 (EGFR L858R/C797S),2.1 nM
same,IC50,[3],403 nM
same,AUC(0-t),Pharmacokinetics in mice,1140 ng·h/mL
same,half-life,Pharmacokinetics in mice,21.5 h
same,Cmax,Pharmacokinetics in mice,92.4 ng/mL
same,AUC(0-t),Pharmacokinetics in rats,1700 ng·h/mL
same,half-life,Pharmacokinetics in rats,17.2 h
same,Cmax,Pharmacokinetics in rats,106 ng/mL
same,microsomal CLint,[4],41.5 µL/min/mg
same,microsomal CLint,[5],2.9 µL/min/mg
same,microsomal CLint,[6],20.6 µL/min/mg
"Cc1cc2cc(n1)-c1cnccc1OCCC[C@@H](C)Cn1c(nc3ccc(N4CCC5(CCN(C)CC5)CC4)cc31)NC2=O [Example 3, (R)-2^6,7-dimethyl-5^6-(9-methyl-3,9-diazaspiro[5.5]undecan-3-yl)-5^1H-11-oxa-4-aza-5(2,1)-benzo[d]imidazola-1(3,4)2(2,4)-dipyridinacycloundecaphan-3-one]",GI50,[1],0.49 nM
same,GI50,[2],0.71 nM
same,GI50,Ba/F3 (EGFR Del19/C797S),0.07 nM
same,GI50,Ba/F3 (EGFR L858R/C797S),0.44 nM
same,IC50,[3],759 nM
same,microsomal CLint,[4],6.6 µL/min/mg
same,microsomal CLint,[5],8 µL/min/mg
same,microsomal CLint,[7],23.1 µL/min/mg
same,microsomal CLint,[6],7.9 µL/min/mg
"Cc1cc2cc(n1)-c1cnccc1OCCCCCn1c(nc3cc(C)c(N4CCC5(CCN(C)CC5)CC4)cc31)NC2=O [Example 13, 2^6,5^5-dimethyl-5^6-(9-methyl-3,9-diazaspiro[5.5]undecan-3-yl)-5^1H-11-oxa-4-aza-5(2,1)-benzo[d]imidazola-1(3,4),2(2,4)-dipyridinacycloundecaphan-3-one]",GI50,[1],0.96 nM
same,GI50,[2],2 nM
same,GI50,Ba/F3 (EGFR Del19/C797S),0.2 nM
same,GI50,Ba/F3 (EGFR L858R/C797S),1.3 nM
same,IC50,[3],> 3330 nM
same,microsomal CLint,[4],4 µL/min/mg
same,microsomal CLint,[5],7 µL/min/mg
same,microsomal CLint,[7],6.2 µL/min/mg
same,microsomal CLint,[6],4.2 µL/min/mg
"Cc1cc2cc(n1)-c1cnccc1OCCC[C@@H](C)Cn1c(nc3cc(C)c(N4CCC5(CC4)CCN(C4COC4)CC5)cc31)NC2=O [Example 12, (R)-2^6,5^5,7-trimethyl-5^6-(9-(oxetan-3-yl)-3,9-diazaspiro[5.5]undecan-3-yl)-5^1H-11-oxa-4-aza-5(2,1)-benzo[d]imidazola-1(3,4),2(2,4) -dipyridinacycloundecaphan-3-on]",GI50,[1],4.9 nM
same,GI50,[2],7.6 nM
same,GI50,Ba/F3 (EGFR Del19/C797S),0.48 nM
same,GI50,Ba/F3 (EGFR L858R/C797S),4.4 nM
same,IC50,[3],1000 nM
same,microsomal CLint,[4],24.9 µL/min/mg
same,microsomal CLint,[7],5.5 µL/min/mg
same,microsomal CLint,[6],10.4 µL/min/mg
"Cc1cc2cc(n1)-c1cnccc1OCCC[C@@H](C)Cn1c(nc3cc(F)c(N4CCC5(CCN(C)CC5)CC4)cc31)NC2=O [Example 5, (R)-5^5-fluoro-2^6,7-dimethyl-5^6-(9-methyl-3,9-diazaspiro[5.5]undecan-3-yl)-5^1H-11-oxa-4-aza-5(2,1)-benzo[d]imidazola-1(3,4),2(2,4)-dipyridinacycloundecaphan-3-one]",GI50,[1],0.61 nM
same,GI50,[2],0.98 nM
same,GI50,Ba/F3 (EGFR Del19/C797S),0.19 nM
same,GI50,Ba/F3 (EGFR L858R/C797S),0.88 nM
same,IC50,[3],331 nM
same,microsomal CLint,[4],9.1 µL/min/mg
same,microsomal CLint,[5],8.9 µL/min/mg
same,microsomal CLint,[7],22.8 µL/min/mg
same,microsomal CLint,[6],2.2 µL/min/mg
Cc1cc2cc(n1)-c1cnccc1OCCC[C@@H](C)Cn1c(nc3ccc(N4CCC5(CC4)CCN(C4COC4)CC5)cc31)NC2=O [Example 4],GI50,[1],0.2 nM
same,GI50,[2],1.1 nM
same,GI50,Ba/F3 (EGFR Del19/C797S),0.2 nM
same,GI50,Ba/F3 (EGFR L858R/C797S),0.8 nM
same,IC50,[3],274 nM
same,AUC(0-t),Pharmacokinetics in mice,2090 ng·h/mL
same,half-life,Pharmacokinetics in mice,5.28 h
same,Cmax,Pharmacokinetics in mice,181 ng/mL
same,AUC(0-t),Pharmacokinetics in rats,2590 ng·h/mL
same,half-life,Pharmacokinetics in rats,27.5 h
same,Cmax,Pharmacokinetics in rats,165 ng/mL
same,microsomal CLint,[4],26.3 µL/min/mg
same,microsomal CLint,[5],5.6 µL/min/mg
same,microsomal CLint,[6],24 µL/min/mg
"Cc1cc2cc(n1)-c1cnccc1OCCCCCn1c(nc3ccc(N4CCC5(CCN(C)CC5)CC4)cc31)NC2=O [Example 1, 2^6-methyl-5^6-(9-methyl-3,9-diazaspiro[5.5]undecan-3-yl)-5^1H-11-oxa-4-aza-5(2,1)-benzo[d]imidazola-1(3,4),2(2,4)-dipyridinacycloundecaphan-3-one]",GI50,[1],0.24 nM
same,GI50,[2],0.62 nM
same,GI50,Ba/F3 (EGFR Del19/C797S),0.08 nM
same,GI50,Ba/F3 (EGFR L858R/C797S),0.23 nM
same,IC50,[3],1640 nM
same,microsomal CLint,[4],7.2 µL/min/mg
same,microsomal CLint,[5],14.2 µL/min/mg
same,microsomal CLint,[7],32.7 µL/min/mg
same,microsomal CLint,[6],8.9 µL/min/mg
"Cc1cc2cc(n1)-c1cnccc1OCCCCCn1c(nc3ccc(N4CCC5(CCN(CC(C)(C)F)CC5)CC4)cc31)NC2=O [Example 78, 5^6-(9-(2-fluoro-2-methylpropyl)-3,9-diazaspiro [5.5]undecan-3-yl)-2^6-methyl-5^1H-11-oxa-4-aza-5(2,1)-benzo[d] imidazola-1(3,4),2(2,4)-dipyridinacyclo-undecaphan-3-one]",GI50,[1],5.9 nM
same,GI50,[2],12 nM
same,GI50,Ba/F3 (EGFR Del19/C797S),3.3 nM
same,GI50,Ba/F3 (EGFR L858R/C797S),21 nM
same,IC50,[3],> 3330 nM
same,microsomal CLint,[4],4.3 µL/min/mg
same,microsomal CLint,[5],12.2 µL/min/mg
same,microsomal CLint,[7],69.5 µL/min/mg
same,microsomal CLint,[6],22 µL/min/mg
